Legend:
IAGlc synthase [1] = biological target: T1, IAGlc synthase (Zea mays, UniProt Q41819); assay: […]IAA glucosylation TLC radioassay, Dixon plot; assay type: biochemical
T1 construct: gene IAGLU; recombinant, N-terminally His-tagged, expressed in E. coli
T1 sequence (Q41819 1-471): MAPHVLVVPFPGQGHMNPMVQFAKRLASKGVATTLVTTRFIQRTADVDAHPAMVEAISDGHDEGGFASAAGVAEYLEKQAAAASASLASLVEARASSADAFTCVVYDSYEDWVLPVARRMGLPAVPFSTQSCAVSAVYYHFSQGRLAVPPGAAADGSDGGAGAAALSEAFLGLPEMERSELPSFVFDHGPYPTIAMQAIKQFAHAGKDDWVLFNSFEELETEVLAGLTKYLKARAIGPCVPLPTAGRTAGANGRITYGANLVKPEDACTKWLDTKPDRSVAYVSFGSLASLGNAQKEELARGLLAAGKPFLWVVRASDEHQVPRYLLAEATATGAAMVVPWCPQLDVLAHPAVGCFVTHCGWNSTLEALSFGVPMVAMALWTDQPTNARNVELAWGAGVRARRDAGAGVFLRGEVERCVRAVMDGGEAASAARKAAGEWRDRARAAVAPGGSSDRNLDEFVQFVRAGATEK

IAGlc synthase [2] = biological target: T1, IAGlc synthase; assay: coupled spectrophotometric assay, […] acceptor (relative activity); assay type: biochemical

Relative Activity (%) (IAGlc synthase [2]) | Structure (SMILES) | Ki (IAGlc synthase [1]) [µM]
 | O=C(O)COc1ccc(Cl)cc1Cl [2,4-D, 2,4-dichlorophenoxyacetic acid] | 117 ± 10
66 | O=C(O)CCCc1c[nH]c2ccccc12 [IBA, indole-3-butyric acid] | 
49.7 | O=C(O)CCc1c[nH]c2ccccc12 [IPA, indole-3-propionic acid] | 
